From ChEMBL document CHEMBL5154691, “Discovery of novel verinurad analogs as dual inhibitors of URAT1 and GLUT9 with improved Druggability for the treatment of hyperuricemia” (Eur J Med Chem, 2022) come the findings set out here.

Each structure is given as a SMILES string.

Data set [1] in a line: MRT (0 to infinity) in Sprague-Dawley rat at 5 mg/kg, iv by LC-MS/MS analysis. The note with it: in vivo. It is filed as ADME, organism-based.
The nature of data set [2]: Renal toxicity in xanthine and potassium oxonate-induced acute hyperuricemia Kunming mouse model assessed as serum creatinine level at 10 mg/kg, po measured after 3 hrs. The class given is organism-based. The note with it: in vivo.
Data set [3] can be described thus: MRT (0 to infinity) in Sprague-Dawley rat at 5 mg/kg, po by LC-MS/MS analysis. The class given is ADME, organism-based. The note with it: in vivo.
Data set [4] can be described thus: Cmax in Sprague-Dawley rat at 5 mg/kg, po measured upto 36 hrs by LC-MS/MS analysis. It is filed as ADME, organism-based. Set-up: time < 36 hrs, dose 5 mg/kg, route po. The note with it: in vivo.
Data set [5] in a line: AUC (0 to infinity) in Sprague-Dawley rat at 5 mg/kg, iv by LC-MS/MS analysis. It is filed as ADME, organism-based. Also noted: time infinity, dose 5 mg/kg, route iv. The note with it: in vivo.
Data set [6] can be described thus: Tmax in Sprague-Dawley rat at 5 mg/kg, po measured upto 36 hrs by LC-MS/MS analysis. It is filed as ADME, organism-based. The note with it: in vivo.
Data set [7] has as its target T1, Solute carrier family 2, facilitated glucose transporter member 9 (Homo sapiens, UniProt Q9NRM0).
T1 sequence (Q9NRM0 whole entry): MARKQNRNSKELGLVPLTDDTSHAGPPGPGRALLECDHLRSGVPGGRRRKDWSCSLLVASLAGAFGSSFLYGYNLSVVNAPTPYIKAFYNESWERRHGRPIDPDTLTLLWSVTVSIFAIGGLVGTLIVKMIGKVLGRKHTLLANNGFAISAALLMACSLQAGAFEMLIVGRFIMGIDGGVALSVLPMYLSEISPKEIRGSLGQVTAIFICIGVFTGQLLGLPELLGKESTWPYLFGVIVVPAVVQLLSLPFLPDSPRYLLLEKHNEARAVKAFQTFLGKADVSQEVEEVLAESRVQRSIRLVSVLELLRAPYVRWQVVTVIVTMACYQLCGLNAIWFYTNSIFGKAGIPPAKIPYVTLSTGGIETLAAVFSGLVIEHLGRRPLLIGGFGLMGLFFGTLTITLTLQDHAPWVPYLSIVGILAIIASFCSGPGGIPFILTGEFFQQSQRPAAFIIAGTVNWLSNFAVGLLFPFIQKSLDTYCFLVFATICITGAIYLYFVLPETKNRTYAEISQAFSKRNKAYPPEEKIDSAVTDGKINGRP
Description: Inhibition of GLUT9 (unknown origin) expressed in HEK293T cells assessed as inhibition of uric acid-induced current by whole cell patch clamp technique. It is filed as cell-based. For orientation: In patch-clamp work, channel activity is measured electrically.

Data set [8] in a line: Inhibition of URAT1 S35N mutant (unknown origin)-mediated 14C-uric acid uptake expressed in HEK293 cells using 14C-uric acid as substrate preincubated for 30 mins followed by substrate addition and measured after 15 mins by liquid scintillation counting analysis. The class given is cell-based. The note with it: Homo sapiens.
Data set [9] can be described thus: Oral bioavailability in Sprague-Dawley rat at 5 mg/kg measured upto 36 hrs by LC-MS/MS analysis. The note with it: in vivo. It is filed as ADME, organism-based.
Data set [10] has as its target T2, Solute carrier family 22 member 12 (Homo sapiens, UniProt Q96S37).
T2 sequence (Q96S37 whole entry): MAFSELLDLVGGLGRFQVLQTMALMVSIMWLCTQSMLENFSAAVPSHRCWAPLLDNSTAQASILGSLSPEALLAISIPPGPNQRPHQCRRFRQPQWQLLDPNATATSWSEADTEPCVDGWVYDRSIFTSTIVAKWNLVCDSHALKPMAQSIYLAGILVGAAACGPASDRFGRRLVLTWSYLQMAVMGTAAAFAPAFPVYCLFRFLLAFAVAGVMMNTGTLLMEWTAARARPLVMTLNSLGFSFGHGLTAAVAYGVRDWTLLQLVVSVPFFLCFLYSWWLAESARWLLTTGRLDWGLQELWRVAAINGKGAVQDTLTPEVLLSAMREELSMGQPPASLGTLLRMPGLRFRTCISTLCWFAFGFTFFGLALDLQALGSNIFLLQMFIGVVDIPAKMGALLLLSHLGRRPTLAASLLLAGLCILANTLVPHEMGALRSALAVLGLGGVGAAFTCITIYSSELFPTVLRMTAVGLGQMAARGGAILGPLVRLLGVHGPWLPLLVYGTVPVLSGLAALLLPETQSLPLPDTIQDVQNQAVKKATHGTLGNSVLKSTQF
As to the kind of experiment: Inhibition of URAT1 (unknown origin)-mediated 14C-uric acid uptake expressed in HEK293 cells using 14C-uric acid as substrate preincubated for 30 mins followed by substrate addition and measured after 15 mins by liquid scintillation counting analysis. It is filed as cell-based.

A short description of data set [11]: Cmax in Sprague-Dawley rat at 5 mg/kg, iv measured upto 36 hrs by LC-MS/MS analysis. It is filed as ADME, organism-based. The note with it: in vivo. Also noted: time < 36 hrs, dose 5 mg/kg, route iv.
For data set [12], the system named is Mus musculus. As to the kind of experiment: Anti-hyperuricemic activity against xanthine and potassium oxonate-induced acute hyperuricemia Kunming mouse model assessed as increase in urine uric acid concentration at 10 mg/kg, po measured for 24 hrs. It is filed as functional.
The nature of data set [13]: Inhibition of URAT1 I481M mutant (unknown origin)-mediated 14C-uric acid uptake expressed in HEK293 cells using 14C-uric acid as substrate preincubated for 30 mins followed by substrate addition and measured after 15 mins by liquid scintillation counting analysis. The class given is cell-based. The note with it: Homo sapiens.
The nature of data set [14]: Renal toxicity in xanthine and potassium oxonate-induced acute hyperuricemia Kunming mouse model assessed as blood urea nitrogen level at 10 mg/kg, po measured after 3 hrs. The class given is organism-based. The note with it: in vivo.
Data set [15] relates to Mus musculus. As to the kind of experiment: Anti-hyperuricemic activity against xanthine and potassium oxonate-induced acute hyperuricemia Kunming mouse model assessed as serum uric acid concentration at 10 mg/kg, po measured after 3 hrs (reference value: 846.22 uM). The class given is functional.
Data set [16] is described as follows: AUC (0 to infinity) in Sprague-Dawley rat at 5 mg/kg, po by LC-MS/MS analysis. The class given is ADME, organism-based. Set-up: time infinity, dose 5 mg/kg, route po. The note with it: in vivo.
The nature of data set [17]: Cytotoxicity against human HK-2 cells assessed as reduction in cell viability incubated for 48 hrs by MTT assay. The class given is toxicity, cell-based. Background: Formazan colour is commonly taken as a measure of viable cells.
Data set [18] concerns the target T3, Solute carrier family 22 member 6 (Homo sapiens, UniProt Q4U2R8).
T3 sequence (Q4U2R8 whole entry): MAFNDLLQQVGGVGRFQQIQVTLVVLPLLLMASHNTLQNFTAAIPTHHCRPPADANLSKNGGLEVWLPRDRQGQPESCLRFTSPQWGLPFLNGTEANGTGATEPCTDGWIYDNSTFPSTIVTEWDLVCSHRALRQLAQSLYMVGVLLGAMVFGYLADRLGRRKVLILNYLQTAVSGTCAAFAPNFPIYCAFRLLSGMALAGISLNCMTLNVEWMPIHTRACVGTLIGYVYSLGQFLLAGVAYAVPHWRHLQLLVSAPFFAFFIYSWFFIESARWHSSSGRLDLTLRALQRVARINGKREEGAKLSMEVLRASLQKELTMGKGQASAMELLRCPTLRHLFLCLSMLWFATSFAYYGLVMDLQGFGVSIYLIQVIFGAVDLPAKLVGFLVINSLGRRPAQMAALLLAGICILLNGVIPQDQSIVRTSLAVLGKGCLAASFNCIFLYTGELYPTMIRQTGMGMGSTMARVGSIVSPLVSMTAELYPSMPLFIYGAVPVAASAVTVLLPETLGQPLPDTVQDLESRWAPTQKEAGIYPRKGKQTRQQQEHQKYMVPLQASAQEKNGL
As to the kind of experiment: Inhibition of OAT1 (unknown origin) expressed in HEK293 cells assessed as inhibition of 6-CFL uptake preincubated for 30 mins followed by incubation with 6-CFL and measured after 15 mins by fluorescence based analysis. The class given is toxicity, cell-based.

A short description of data set [19]: Inhibition of URAT1 R487K mutant (unknown origin)-mediated 14C-uric acid uptake expressed in HEK293 cells using 14C-uric acid as substrate preincubated for 30 mins followed by substrate addition and measured after 15 mins by liquid scintillation counting analysis. The class given is cell-based. The note with it: Homo sapiens.

Take `N#Cc1ccc(Nc2cnccc2SCc2ccccc2C(=O)[O-])c2ccccc12.[Na+]`: the MRT inf (in general, the average time that molecules of a dose stay in the body) in [1] was determined as 4.8 h; in data set [3], 3.17 h. For the same molecule, the Activity result is “Non-Toxic” in [2], 2444.24 µM in data set [12], “Non-Toxic” in data set [14] and 645.8 µM in data set [15]. The highest concentration (Cmax) (in general, the highest concentration seen after dosing) came to 7650 ng/mL in data set [4] and 11100 ng/mL in [11]. In addition, the AUC(0-inf) (in general, the area under the concentration-time curve extrapolated to infinity) in data set [5] was found to be 18500 ng·h/mL; in data set [16] it was 5660 ng·h/mL. Also, the Tmax (in general, the time at which the peak concentration occurs) in [6] came out at 0.5 h. Moreover, the half-inhibitory concentration (IC50) (usually the point on the concentration scale where inhibition reaches its midpoint) in data set [7] turned out to be 9.37 µM; in data set [8], 3.14 µM; in data set [10], 0.24 µM; in data set [13] it was 0.31 µM; in data set [18], 32.1 µM; in data set [19] it was 1.89 µM. For the same molecule, the bioavailability (as a rule, dose-corrected exposure relative to a reference, in per cent) in [9] was 30.1%. Further, the IC50 at 48 h in data set [17] was determined as 167 µM.
